For orientation: Ki means a dissociation constant, usually derived from enzyme kinetics or from competition with a known ligand. Usually AUC stands for concentration integrated over time. As a reminder, the clearance is the rate of elimination divided by the concentration. The bioavailability is dose-corrected exposure relative to a reference, in per cent. As a reminder, the solubility is the dissolved amount per volume that the medium holds. What is called logD is lipophilicity at a set pH, counting ionised and neutral species.

In brackets after ≈: the same amount, converted by molar mass. Where only a bound is given, the exact number is not on record here.

Series [1] addresses T1, Oxytocin receptor (Homo sapiens, UniProt P30559).
T1 sequence (P30559 whole entry): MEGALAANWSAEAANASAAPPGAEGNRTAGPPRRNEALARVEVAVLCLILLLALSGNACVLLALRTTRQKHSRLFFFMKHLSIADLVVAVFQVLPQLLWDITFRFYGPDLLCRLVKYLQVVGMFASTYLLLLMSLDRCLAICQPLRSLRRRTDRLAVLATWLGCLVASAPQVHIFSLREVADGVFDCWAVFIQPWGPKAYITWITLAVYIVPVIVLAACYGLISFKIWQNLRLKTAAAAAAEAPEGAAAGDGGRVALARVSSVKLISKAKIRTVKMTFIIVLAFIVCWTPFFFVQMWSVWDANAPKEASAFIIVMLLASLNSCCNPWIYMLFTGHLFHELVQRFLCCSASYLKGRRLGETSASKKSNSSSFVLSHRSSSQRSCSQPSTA
Nature of the series: Displacement of [3H]oxytocin from human oxytocin receptor.

Series [2] is described as follows: AUC in rat at 5 mg/kg, po. The class given is ADME, organism-based. The arrangement: dose 5 mg/kg, route oral. The note with it: plasma.
The nature of series [3]: Clearance in rat at 5 mg/kg. The series is classed as ADME, organism-based. More on the design: dose 5 mg/kg. The note with it: in vivo.
Series [4] can be described thus: Oral bioavailability in rat at 5 mg/kg. The class given is ADME, organism-based. The note with it: in vivo.
Series [5] is described as follows: AUC in dog at 0.6 mg/kg, po. The series is classed as ADME, organism-based, Canis lupus familiaris. The arrangement: dose 0.6 mg/kg, route oral. As to conditions: plasma.
Series [6] is described as follows: Clearance in dog at 0.6 mg/kg. The arrangement: dose 0.6 mg/kg. The class given is ADME, organism-based, Canis lupus familiaris. The note with it: in vivo.
The nature of series [7]: Oral bioavailability in dog at 0.6 mg/kg. The series is classed as ADME, organism-based, Canis lupus familiaris. The note with it: in vivo.
The nature of series [8]: Aqueous solubility of the compound by HPLC analysis. The series is classed as physicochemical.
Series [9] is described as follows: Lipophilicity, log D of the compound by HPLC analysis. The series is classed as physicochemical.
Series [10] deals with serum albumin (Homo sapiens, UniProt P02768). Nature of the series: Binding affinity to human serum albumin. The class given is ADME. As to conditions: read-out: PB (converted).
serum albumin (Homo sapiens, UniProt P02768), sequence (P02768 whole entry): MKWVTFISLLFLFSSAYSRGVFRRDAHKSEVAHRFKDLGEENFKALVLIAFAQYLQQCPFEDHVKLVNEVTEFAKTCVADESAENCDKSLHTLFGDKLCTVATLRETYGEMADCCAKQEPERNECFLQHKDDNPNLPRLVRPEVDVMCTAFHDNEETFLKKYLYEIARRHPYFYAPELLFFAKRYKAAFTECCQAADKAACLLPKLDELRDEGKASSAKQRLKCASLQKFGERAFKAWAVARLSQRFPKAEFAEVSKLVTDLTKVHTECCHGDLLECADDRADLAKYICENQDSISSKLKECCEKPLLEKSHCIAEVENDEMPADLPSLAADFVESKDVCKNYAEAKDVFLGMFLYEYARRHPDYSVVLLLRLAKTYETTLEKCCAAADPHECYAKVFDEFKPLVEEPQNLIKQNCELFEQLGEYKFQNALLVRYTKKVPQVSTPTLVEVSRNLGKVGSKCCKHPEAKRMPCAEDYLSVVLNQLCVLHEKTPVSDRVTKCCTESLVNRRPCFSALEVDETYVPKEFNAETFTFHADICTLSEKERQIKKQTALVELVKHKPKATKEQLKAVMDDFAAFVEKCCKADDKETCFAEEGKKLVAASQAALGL
Series [11] deals with serum albumin (Rattus norvegicus, UniProt P02770). The series is described as follows: Binding affinity to rat serum albumin. The series is classed as ADME. As to conditions: read-out: PB (converted).
serum albumin (Rattus norvegicus, UniProt P02770), sequence (P02770 whole entry): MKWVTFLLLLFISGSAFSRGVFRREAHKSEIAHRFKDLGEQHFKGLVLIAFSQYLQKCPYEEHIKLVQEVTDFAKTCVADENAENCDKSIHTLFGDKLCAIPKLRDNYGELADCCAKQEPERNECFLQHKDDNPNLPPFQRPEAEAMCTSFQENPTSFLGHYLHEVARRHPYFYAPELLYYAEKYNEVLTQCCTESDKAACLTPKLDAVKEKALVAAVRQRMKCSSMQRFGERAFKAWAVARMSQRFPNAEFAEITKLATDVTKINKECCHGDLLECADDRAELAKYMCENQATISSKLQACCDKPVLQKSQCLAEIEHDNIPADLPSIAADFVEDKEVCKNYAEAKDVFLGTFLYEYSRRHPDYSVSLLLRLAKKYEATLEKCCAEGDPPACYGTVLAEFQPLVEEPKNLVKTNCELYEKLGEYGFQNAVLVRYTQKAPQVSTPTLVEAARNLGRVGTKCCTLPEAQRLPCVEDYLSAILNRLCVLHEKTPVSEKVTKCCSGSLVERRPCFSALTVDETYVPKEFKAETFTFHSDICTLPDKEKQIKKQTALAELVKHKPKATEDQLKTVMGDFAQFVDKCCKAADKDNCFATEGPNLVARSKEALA
For series [12], the system named is Liver microsomes. Nature of the series: Intrinsic clearance in rat liver microsomes. The series is classed as ADME, Microsome.
Another series has as its system Liver. Nature of the series: Intrinsic clearance in dog liver microsomes. The class given is ADME, Canis lupus familiaris, Microsome. For orientation: Microsomes from liver hold many membrane-bound enzymes, among them those of drug oxidation.
A short description of series [13]: Intrinsic clearance in cynomolgus monkey liver microsomes. The series is classed as ADME, Macaca fascicularis, Microsome.
Series [14] has as its system Liver microsomes. Nature of the series: Intrinsic clearance in human liver microsomes. The series is classed as ADME, Microsome.
A short description of series [15]: AUC in cynomolgus monkey at 2 mg/kg, po. The series is classed as ADME, organism-based, Macaca fascicularis. More on the design: dose 2 mg/kg, route oral. The note with it: plasma.
Series [16] is described as follows: Clearance in cynomolgus monkey at 2 mg/kg. More on the design: dose 2 mg/kg. The class given is ADME, organism-based, Macaca fascicularis. As to conditions: in vivo.
Series [17] is described as follows: Oral bioavailability in cynomolgus monkey at 2 mg/kg. The series is classed as ADME, organism-based, Macaca fascicularis. As to conditions: in vivo.
The target of series [18] is T1, Oxytocin receptor. The series is described as follows: Antagonist activity at human oxytocin receptor assessed as inhibition of oxytocin binding by FLIPR analysis.

In the case of `Cc1ccc([C@H](C(=O)N(C)C)N2C(=O)[C@@H](C3Cc4ccccc4C3)NC(=O)[C@H]2CC(C)C)cn1`, the affinity on Oxytocin receptor [1], expressed as Ki, was 1.58 nM. For the same compound, the AUC in series [2] is 2680 ng·h/mL; in series [5], 454 ng·h/mL. For the same compound, the clearance in series [3] was found to be 18 mL/min/kg; in series [6], 6 mL/min/kg. The bioavailability in series [4] worked out at 57%; in series [7], 26%. For the same compound, the solubility in series [8] is over 236 µg/mL. Besides, the logD in series [9] was 2.1. Also, the fraction unbound on serum albumin [10] was 0.17; at serum albumin [11] it was 0.14. Further, the CLH was 3 mL/min/g in the series with Liver microsomes [12], 3 mL/min/g with Liver, 21 mL/min/g in [13] and 11 mL/min/g with Liver microsomes [14].
On Oxytocin receptor [1], `Cc1ccc([C@H](C(=O)N2CCCC2)N2C(=O)[C@@H](C3Cc4ccccc4C3)NC(=O)[C@H]2CC(C)C)cn1` had a Ki of 0.501 nM. In series [2], this compound displayed an AUC of 920 ng·h/mL. In addition, the clearance in series [3] was determined as 33 mL/min/kg. The same compound displayed a bioavailability in [4] of 36%. In series [8], this compound displayed a solubility of 241 µg/mL (≈ 493 µM). For the same compound, the logD in series [9] was 2.3. Also, the fraction unbound on serum albumin [10] was 0.24; at serum albumin [11], 0.3.
Compound `CCC(CC)[C@@H]1C(=O)N[C@H](C2Cc3ccccc3C2)C(=O)N1[C@@H](C(=O)N1CCOCC1)c1ccc(C)nc1C` gave a Ki at Oxytocin receptor [1] of 0.0316 nM. For the same compound, the results for the AUC in [2] and in series [15] were 2330 ng·h/mL and 11 ng·h/mL, respectively. In series [3], this compound showed a clearance of 15 mL/min/kg. Further, the bioavailability in series [4] turned out to be 42%. Moreover, the CLH was determined as 1 mL/min/g with Liver microsomes [12], 1 mL/min/g with Liver, 14 mL/min/g in [13] and 11 mL/min/g with Liver microsomes [14].
With `COc1ccc([C@H](C(=O)N(C)C)N2C(=O)[C@@H](C3Cc4ccccc4C3)NC(=O)[C@H]2CC(C)C)cn1`, the Ki on Oxytocin receptor [1] is 0.398 nM. Further, the area under the curve (AUC) is 2230 ng·h/mL in [2] and 158 ng·h/mL in series [5]. The figures for the clearance in series [3] and in series [6] were 23 mL/min/kg and 8 mL/min/kg, respectively. In addition, the bioavailability amounted to 62% in [4] and 13% in series [7]. In addition, in [8], the concentration in solution (solubility) came to 216 µg/mL (≈ 451 µM). The compound further gave a logD in [9] of 2.7. Further, the fraction unbound at serum albumin [10] was 0.08; on serum albumin [11], 0.14.
Compound `COc1ccc([C@H](C(=O)N2CCOCC2)N2C(=O)[C@@H](C3Cc4ccccc4C3)NC(=O)[C@H]2CC(C)C)cn1` showed a Ki at Oxytocin receptor [1] of 0.251 nM. In series [2], the AUC was found to be 2130 ng·h/mL. Also, the clearance in series [3] was 35 mL/min/kg. Also, the bioavailability in [4] is 88%. Moreover, the concentration in solution in series [8] (solubility) came to 249 µg/mL (≈ 478 µM). Further, in series [9], the logD came out at 2.7. In addition, the fraction unbound on serum albumin [10] was 0.24; on serum albumin [11] it was 0.22.
As to `CC[C@H](C)[C@@H]1C(=O)N[C@H](C2Cc3ccccc3C2)C(=O)N1[C@@H](C(=O)N(C)C)c1ccc(C)nc1C`, the affinity on Oxytocin receptor [1] corresponds to a Ki of 0.0794 nM. The values for the AUC in series [2], in series [5] and in series [15] were 4720 ng·h/mL, 305 ng·h/mL and 17 ng·h/mL, respectively. In addition, the clearance is 15 mL/min/kg in series [3], 14 mL/min/kg in series [6] and 20 mL/min/kg in [16]. Also, the bioavailability came out at 84% in [4], 44% in series [7] and 1% in series [17]. In addition, the CLH in the series with Liver microsomes [12] came to 1 mL/min/g; with Liver, 1 mL/min/g; in series [13], 14 mL/min/g; in the series with Liver microsomes [14], 7 mL/min/g.
As for `Cc1ccc([C@H](C(=O)N2CCOCC2)N2C(=O)[C@@H](C3Cc4ccccc4C3)NC(=O)[C@H]2CC(C)C)cn1`, the Ki on Oxytocin receptor [1] was 0.398 nM. The area under the curve (AUC) in [2] worked out at 811 ng·h/mL; in [5], 53 ng·h/mL. Moreover, the clearance in series [6] turned out to be 17 mL/min/kg. This compound also came in with a bioavailability in series [7] of 10%. The solubility in series [8] was over 253 µg/mL. For the same compound, the logD in [9] worked out at 2.1. Further, the fraction unbound on serum albumin [10] is 0.33; at serum albumin [11], 0.38.
Regarding `CCc1ccccc1[C@H](C(=O)NC(C)C)N1C(=O)[C@@H](C2Cc3ccccc3C2)NC(=O)[C@H]1CC(C)C`, the Ki at Oxytocin receptor [18] is 15.8 nM.
At Oxytocin receptor [1], `CC(C)C[C@@H]1C(=O)N[C@H](C2Cc3ccccc3C2)C(=O)N1[C@@H](C(=O)N1CCOCC1)c1ccc(N(C)C)nc1` had a Ki of 0.316 nM. For the same compound, the AUC in [2] came to 80 ng·h/mL. Moreover, the concentration in solution in series [8] (solubility) was 235 µg/mL (≈ 440 µM). Moreover, in series [9], the logD is 2.9. For the same compound, the fraction unbound is 0.3 at serum albumin [10] and 0.29 on serum albumin [11].
As for `CC(C)C[C@@H]1C(=O)N[C@H](C2Cc3ccccc3C2)C(=O)N1[C@@H](C(=O)NC(C)C)c1ccccc1-c1ccccc1`, the inhibition constant (Ki) on Oxytocin receptor [18] was 39.8 nM.
Consider `CC(C)C[C@@H]1C(=O)N[C@H](C2Cc3ccccc3C2)C(=O)N1[C@@H](C(=O)NC(C)C)c1ccccc1OC(F)(F)F`, for which, on Oxytocin receptor [18], the inhibition constant (Ki) was 39.8 nM.
`CC(C)C[C@@H]1C(=O)N[C@H](C2Cc3ccccc3C2)C(=O)N1[C@@H](C(=O)NC(C)C)c1ccccc1Cl`: on Oxytocin receptor [18], the Ki was 3.98 nM.
In the case of `COc1ccccc1[C@H](C(=O)NC(C)C)N1C(=O)[C@@H](C2Cc3ccccc3C2)NC(=O)[C@H]1CC(C)C`, on Oxytocin receptor [18], the inhibitory constant (Ki) was 31.6 nM.
On to `Cc1ccccc1[C@H](C(=O)NC(C)C)N1C(=O)[C@@H](C2Cc3ccccc3C2)NC(=O)[C@H]1CC(C)C`, for which the Ki on Oxytocin receptor [18] was 7.94 nM.
On to `CC(C)C[C@@H]1C(=O)N[C@H](C2Cc3ccccc3C2)C(=O)N1[C@@H](C(=O)NC(C)C)c1ccccc1C(F)(F)F`, for which the Ki at Oxytocin receptor [18] was 31.6 nM.
In the case of `CCC(CC)[C@@H]1C(=O)N[C@H](C2Cc3ccccc3C2)C(=O)N1[C@@H](C(=O)NC)c1ccc(C)nc1`, the Ki on Oxytocin receptor [1] is 0.1 nM. The results for the exposure (AUC) in [2], in series [5] and in series [15] were 1470 ng·h/mL, 173 ng·h/mL and 29 ng·h/mL, respectively. For the same compound, the clearance was determined as 17 mL/min/kg in series [3], 22 mL/min/kg in series [6] and 24 mL/min/kg in series [16]. Moreover, the values for the bioavailability in series [4], in [7] and in series [17] were 28%, 38% and 4%, respectively. Also, the CLH in the series on Liver microsomes [12] was determined as 1 mL/min/g; in the series on Liver, 2 mL/min/g; in [13] it was 8 mL/min/g; in the series on Liver microsomes [14] it was 4 mL/min/g.
At Oxytocin receptor [1], `CC(C)C[C@@H]1C(=O)N[C@H](C2Cc3ccccc3C2)C(=O)N1[C@@H](C(=O)N(C)C)c1ccc(N(C)C)nc1` gave a Ki of 0.251 nM. The AUC in series [2] worked out at 135 ng·h/mL. For the same compound, the solubility in series [8] came out at 233 µg/mL (≈ 474 µM). Besides, the logD in series [9] was found to be 2.6. In addition, the fraction unbound was 0.26 at serum albumin [10] and 0.18 at serum albumin [11].
Regarding `COC(=O)c1ccccc1[C@@H](C(=O)NC(C)C)N1C(=O)[C@@H](C2Cc3ccccc3C2)NC(=O)[C@H]1CC(C)C`, the Ki at Oxytocin receptor [18] was 158 nM.
Consider `CC[C@H](C)[C@@H]1C(=O)N[C@H](C2Cc3ccccc3C2)C(=O)N1[C@@H](C(=O)N1CCOCC1)c1coc(C)n1` [RETOSIBAN], for which the CLH in [13] is 6 mL/min/g; in the series on Liver microsomes [14] it was 3 mL/min/g. In series [15], this compound yielded an AUC of 45 ng·h/mL. The compound further showed a clearance in series [16] of 26 mL/min/kg. Further, in [17], the bioavailability came to 10%.
